From ChEMBL document CHEMBL4330116, “Harzianoic acids A and B, new natural scaffolds with inhibitory effects against hepatitis C virus” (Bioorg Med Chem, 2019)

Key:
Hepatitis C virus [1] = assay: Antiviral activity against HCV genotype 2a JFH/JC1 infected in human Huh7.5 cells assessed as inhibition of viral RNA replication after 72 hrs by qRT-PCR analysis; format: functional, organism-based, Hepacivirus hominis; conditions: subtype 2a JFH/JC1, Huh7.5, 72 h
[2] = Cytotoxicity against human Huh7.5 cells after 72 hrs by MTT assay; format: cell-based
[3] = Selectivity index, ratio of CC50 for human Huh7.5 cells to EC50 for antiviral activity against HCV genotype 2a JFH/JC1 infected in human Huh7.5 cells; format: toxicity, cell-based; conditions: read-out: Ratio CC50/EC50
Hepatitis C virus [4] = assay: Antiviral activity against HCV pseudoparticles infected in human Huh7.5 cells infected with HCV pseudoparticles expressed in 293T cells with plasmid encoding HCV E1, E2, envelope and Vpr deficient HIV vector carrying luciferase reporter gene inserted into Nef position assessed as inhibition of pseudoparticle entry after 72 hrs by luciferase reporter gene assay; format: functional, organism-based, Hepacivirus hominis; conditions: for inhibition: Hepacivirus hominis
CD81 antigen = target: T1, CD81 antigen (Homo sapiens, UniProt P60033); assay: Binding affinity to CD81 (unknown origin) by surface plasmon resonance assay
T1 sequence (P60033 whole entry): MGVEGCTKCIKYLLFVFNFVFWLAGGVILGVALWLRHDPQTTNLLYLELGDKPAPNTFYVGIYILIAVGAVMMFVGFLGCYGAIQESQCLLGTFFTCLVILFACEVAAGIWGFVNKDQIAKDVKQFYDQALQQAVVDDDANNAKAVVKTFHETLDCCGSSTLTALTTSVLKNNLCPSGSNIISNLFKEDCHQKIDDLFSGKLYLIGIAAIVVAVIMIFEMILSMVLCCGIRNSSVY

[5] = target: T2, CD81 antigen (Homo sapiens) (UniProt P60033); assay: Binding affinity to CD81 (unknown origin) assessed as association rate constant by surface plasmon resonance assay
T2 sequence (whole entry): T1 sequence (P60033 whole entry)

[6] = target: T2, CD81 antigen (Homo sapiens); assay: Binding affinity to CD81 (unknown origin) assessed as disruption of interaction between CD81 the HCV envelope protein E2 at 5 uM by surface plasmon resonance assay relative to untreated control

SMILES	EC50 (Hepatitis C virus [1]) [µM]	CC50 at 72 h [2] [µM]	selectivity ratio [3]	IC50 (Hepatitis C virus [4]) [µM]	inhibition (Hepatitis C virus [4])	Kd (CD81 antigen) [µM]	Ka [5] [M⁻¹ s⁻¹]	Ratio [6]
CC(C)OC(=O)[C@H](C)NP(=O)(OC[C@H]1O[C@@H](n2ccc(=O)[nH]c2=O)[C@](C)(F)[C@@H]1O)Oc1ccccc1 (stereo not given in full)	0.06	> 200	> 3120	–	–	–	–	–
CCC[C@H](NC(=O)[C@@H]1[C@H]2CCC[C@H]2CN1C(=O)[C@@H](NC(=O)[C@@H](NC(=O)c1cnccn1)C1CCCCC1)C(C)(C)C)C(=O)C(=O)NC1CC1 [TELAPREVIR]	–	26.5	491	–	–	–	–	–
CC(=O)[C@@H]1C[C@H](C(=O)O)[C@@]1(C)CC/C=C(\C)C(=O)O	24.5	75.3	3	35.5	Dose-dependent effect	0.0378	5.33e+06	33
C/C(=C\CC[C@]1(C)[C@@H](C(=O)O)C[C@H]1[C@](C)(O)C(=O)O)C(=O)O	20.4	74.3	4	42.9	Dose-dependent effect	0.0665	3.81e+07	–
